Test results taken from patent US20170015666A1, “ENHANCER OF ZESTE HOMOLOG 2 INHIBITORS” (GLAXOSMITHKLINE INTELLECTUAL PROPERTY (NO.2) LIMITED, priority 2014, published 2017).

Molecular target: T1, EZH2 within the PRC2 complex (Homo sapiens, UniProt Q15910)
T1 construct: FLAG; made in house; host or cells: Sf9 cells
Test: EZH2 methyltransferase scintillation proximity assay (SPA) with PRC2 complex
Type: biochemical
Conditions: 3H-SAM, HeLa mononucleosome substrate, 30 min preincubation, 1 hour reaction

T1 sequence (Q15910 whole entry): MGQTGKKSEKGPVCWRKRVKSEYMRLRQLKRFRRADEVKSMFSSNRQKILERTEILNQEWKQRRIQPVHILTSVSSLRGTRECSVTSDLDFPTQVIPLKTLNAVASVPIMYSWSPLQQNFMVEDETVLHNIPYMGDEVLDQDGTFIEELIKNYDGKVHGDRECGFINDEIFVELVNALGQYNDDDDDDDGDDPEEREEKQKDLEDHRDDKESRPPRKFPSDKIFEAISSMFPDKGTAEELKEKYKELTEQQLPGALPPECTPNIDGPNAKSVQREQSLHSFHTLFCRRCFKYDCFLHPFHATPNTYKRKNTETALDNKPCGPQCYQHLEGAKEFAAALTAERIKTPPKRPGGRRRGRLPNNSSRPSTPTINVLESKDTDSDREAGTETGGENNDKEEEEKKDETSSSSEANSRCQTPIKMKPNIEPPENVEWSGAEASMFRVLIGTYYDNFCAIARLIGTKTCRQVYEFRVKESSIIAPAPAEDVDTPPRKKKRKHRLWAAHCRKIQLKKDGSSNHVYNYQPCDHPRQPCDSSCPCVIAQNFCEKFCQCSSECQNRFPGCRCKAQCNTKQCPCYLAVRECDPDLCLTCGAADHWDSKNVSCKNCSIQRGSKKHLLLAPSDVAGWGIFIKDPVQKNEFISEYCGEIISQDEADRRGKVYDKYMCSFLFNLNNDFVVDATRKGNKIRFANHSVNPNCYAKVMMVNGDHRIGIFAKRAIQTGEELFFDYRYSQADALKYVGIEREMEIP
T1 sequence (O75530 whole entry partner): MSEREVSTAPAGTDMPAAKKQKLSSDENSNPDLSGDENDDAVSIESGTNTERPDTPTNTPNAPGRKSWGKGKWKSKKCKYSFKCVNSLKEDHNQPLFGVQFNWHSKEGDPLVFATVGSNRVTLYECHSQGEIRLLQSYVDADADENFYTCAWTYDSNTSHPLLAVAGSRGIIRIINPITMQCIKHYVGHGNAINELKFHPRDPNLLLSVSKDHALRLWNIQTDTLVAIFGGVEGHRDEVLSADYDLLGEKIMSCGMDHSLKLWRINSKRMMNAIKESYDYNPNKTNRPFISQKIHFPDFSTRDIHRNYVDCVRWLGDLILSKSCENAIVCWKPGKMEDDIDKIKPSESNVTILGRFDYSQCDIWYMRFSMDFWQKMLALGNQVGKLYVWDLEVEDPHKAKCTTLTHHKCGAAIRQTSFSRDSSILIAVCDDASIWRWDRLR
T1 sequence (Q15022 whole entry partner): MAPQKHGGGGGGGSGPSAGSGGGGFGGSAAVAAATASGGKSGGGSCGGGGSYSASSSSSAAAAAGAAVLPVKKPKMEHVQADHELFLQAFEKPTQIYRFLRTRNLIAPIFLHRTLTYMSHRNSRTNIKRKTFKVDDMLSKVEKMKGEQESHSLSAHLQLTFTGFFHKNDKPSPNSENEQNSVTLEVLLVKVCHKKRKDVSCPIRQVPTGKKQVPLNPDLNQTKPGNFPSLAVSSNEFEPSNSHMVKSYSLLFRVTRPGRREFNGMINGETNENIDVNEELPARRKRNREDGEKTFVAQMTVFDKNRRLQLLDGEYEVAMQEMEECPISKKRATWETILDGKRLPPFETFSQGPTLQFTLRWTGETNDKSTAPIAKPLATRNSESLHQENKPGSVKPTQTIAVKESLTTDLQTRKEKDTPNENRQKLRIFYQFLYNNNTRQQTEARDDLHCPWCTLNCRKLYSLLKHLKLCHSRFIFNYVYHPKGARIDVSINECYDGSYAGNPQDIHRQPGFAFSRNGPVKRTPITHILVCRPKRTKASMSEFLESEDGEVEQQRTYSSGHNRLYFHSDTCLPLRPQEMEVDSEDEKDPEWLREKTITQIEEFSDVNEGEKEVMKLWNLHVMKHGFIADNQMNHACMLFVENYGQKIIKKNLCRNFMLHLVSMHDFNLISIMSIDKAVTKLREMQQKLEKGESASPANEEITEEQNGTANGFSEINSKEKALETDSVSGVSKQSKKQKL
T1 sequence (Q09028 whole entry partner): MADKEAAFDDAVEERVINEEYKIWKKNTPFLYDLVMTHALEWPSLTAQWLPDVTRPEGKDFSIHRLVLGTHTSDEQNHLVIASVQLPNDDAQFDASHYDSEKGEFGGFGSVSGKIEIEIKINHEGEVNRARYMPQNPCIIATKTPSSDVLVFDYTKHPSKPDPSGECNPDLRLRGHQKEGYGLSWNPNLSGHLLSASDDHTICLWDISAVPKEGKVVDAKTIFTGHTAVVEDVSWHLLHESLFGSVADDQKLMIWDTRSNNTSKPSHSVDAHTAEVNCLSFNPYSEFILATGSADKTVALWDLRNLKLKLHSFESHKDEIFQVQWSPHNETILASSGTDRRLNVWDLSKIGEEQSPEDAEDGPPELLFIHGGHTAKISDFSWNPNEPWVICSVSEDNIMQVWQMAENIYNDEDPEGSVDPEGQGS
T1 sequence (Q6ZN18 whole entry partner): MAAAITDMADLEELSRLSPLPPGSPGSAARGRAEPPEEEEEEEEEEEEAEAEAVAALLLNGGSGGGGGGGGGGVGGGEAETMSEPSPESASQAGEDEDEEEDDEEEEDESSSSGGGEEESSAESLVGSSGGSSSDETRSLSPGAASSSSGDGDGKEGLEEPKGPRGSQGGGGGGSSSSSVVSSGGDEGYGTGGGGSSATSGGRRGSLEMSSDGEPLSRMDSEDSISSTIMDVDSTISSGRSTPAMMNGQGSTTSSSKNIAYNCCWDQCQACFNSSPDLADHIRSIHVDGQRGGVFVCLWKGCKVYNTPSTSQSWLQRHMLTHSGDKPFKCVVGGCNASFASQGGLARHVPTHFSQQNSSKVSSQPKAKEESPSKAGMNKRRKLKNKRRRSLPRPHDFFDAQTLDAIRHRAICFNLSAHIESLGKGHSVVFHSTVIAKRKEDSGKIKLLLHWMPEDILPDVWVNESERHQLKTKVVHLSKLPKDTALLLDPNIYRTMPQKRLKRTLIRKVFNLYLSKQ

Structure (SMILES) | IC50
Cc1cc2c(c(=O)[nH]1)CNC(=O)c1cc(Cl)cc3c1c(cn3C(C)C)C/C=C\CC2 [Example 2, (Z)-2-chloro-4-isopropyl-12-methyl-9,10,15,16-tetrahydro-4H-pyrido[4′,3′:11,12][1]azacyclotridecino[5,4,3-cd]indole-14,17(6H,13H)-dione] | 316 nM
Cc1cc2c(c(=O)[nH]1)CNC(=O)c1cc(Cl)cc3c1c(cn3C(C)C)CCCCC2 [Example 3, 2-chloro-4-isopropyl-12-methyl-7,8,9,10,15,16-hexahydro-4H-pyrido[4′,3′:11,12][1]azacyclotridecino[5,4,3-cd]indole-14,17(6H,13H)-dione] | 500 nM
Cc1cc2c(c(=O)[nH]1)CNC(=O)c1cc(C#CC(C)(C)O)cc3c1c(cn3C(C)C)C/C=C/CC2 [Example 6, (E)-2-(3-hydroxy-3-methylbut-1-yn-1-yl)-4-isopropyl-12-methyl-9,10,15,16-tetrahydro-4H-pyrido[4′,3′:11,12][1]azacyclotridecino[5,4,3-cd]indole-14,17(6H,13H)-dione] | 200 nM

Stronger by IC50, values ahead:

IC50 | Structure (SMILES)
158 nM | Cc1cc2c(c(=O)[nH]1)CNC(=O)c1cc(C#N)cc3c1c(cn3C(C)C)C/C=C/CC2 [Example 5, (E)-4-isopropyl-12-methyl-14,17-dioxo-6,9,10,13,14,15,16,17-octahydro-4H-pyrido[4′,3′:11,12][1]azacyclotridecino[5,4,3-cd]indole-2-carbonitrile]
40 nM | Cc1cc2c(c(=O)[nH]1)CNC(=O)c1cc(Cl)cc3c1c(cn3C(C)C)C/C=C/CC2 [Example 1, (E)-2-chloro-4-isopropyl-12-methyl-9,10,15,16-tetrahydro-4H-pyrido[4′,3′:11,12][1]azacyclotridecino[5,4,3-cd]indole-14,17(6H,13H)-dione]
32 nM | Cc1cc2c(c(=O)[nH]1)CNC(=O)c1cc(-c3ccc(N4CCNCC4)nc3)cc3c1c(cn3C(C)C)C/C=C/CC2 [Example 4, (E)-4-isopropyl-12-methyl-2-(6-(piperazin-1-yl)pyridin-3-yl)-9,10,15,16-tetrahydro-4H-pyrido[4′,3′:11,12][1]azacyclotridecino[5,4,3-cd]indole-14,17(6H,13H)-dione]
